Measurements: patent US20060069132A1, “Azolecarboxamide herbicides” (priority 2004, published 2006)

Experiments:
barnyardgrass = test: Test A pre-/postemergence herbicide test; type: in vivo, Echinochloa crus-galli
In short: (§1)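 Pre: seeded sandy loam, directed soil spray, compound in non-phytotoxic solvent + surfactant. Post: 1–2-leaf plants (2–10 cm), sprayed to runoff. Greenhouse ~10 d; visual injury vs untreated, 0–100 scale.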

large crabgrass = test: Test A pre-/postemergence herbicide test; type: in vivo, Digitaria sanguinalis
In short: as §1

giant foxtail = test: Test A pre-/postemergence herbicide test; type: in vivo, Setaria faberi
In short: as §1

redroot pigweed = test: Test A pre-/postemergence herbicide test; type: in vivo, Amaranthus retroflexus
In short: as §1

bermudagrass = test: Test C pre-/postemergence herbicide test; type: in vivo, Cynodon dactylon; details: for Bermudagrass plant response rating: 500 g ai/ha
In short: (§2)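 Visual injury scores run from 0 (no effect) to 100 (complete control), assessed relative to untreated controls 12 to 14 days after treatment in the greenhouse. Chemicals were formulated in a non-phytotoxic solvent mixture with surfactant and applied to soil after planting or to emerged plants at the 1- to 4-leaf stage.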

Surinam grass = test: Test C pre-/postemergence herbicide test; type: in vivo, Urochloa decumbens
In short: as §2

woolly cupgrass = test: Test C pre-/postemergence herbicide test; type: in vivo, Eriochloa villosa
In short: as §2

johnsongrass = test: Test C pre-/postemergence herbicide test; type: in vivo, Sorghum halepense
In short: as §2

morningglory = test: Test C pre-/postemergence herbicide test; type: in vivo, Ipomoea coccinea; parameters: key to Plant response rating, Morningglory: 0 = no effect, 100 = complete control
In short: as §2

[1] = Postemergence, 500 g ai/ha, 0 to 100 scale, 0 no effect, 100 complete control
[2] = Postemergence, 2000 g ai/ha, 0 to 100 scale, 0 no effect, 100 complete control
[3] = Preemergence, 2000 g ai/ha, visual rating, 0 to 100 scale (0 no effect, 100 complete control)
[4] = preemergence, 500 g ai/ha, visual injury, 0 to 100 scale (0 no effect, 100 complete control)
[5] = 62 g ai/ha, preemergence, scale 0 to 100, 0 no effect, 100 complete control
[6] = 125 g ai/ha, scale 0 (no effect) to 100 (complete control), visual, 12 to 14 days, preemergence
[7] = 250 g ai/ha, scale 0-100, preemergence
[8] = Preemergence, scale 0 to 100, 0 no effect, 100 complete control
[9] = 62 g ai/ha, preemergence, scale 0 to 100
[10] = Preemergence, 500 g ai/ha, scale 0 to 100, 0 no effect, 100 complete control
[11] = Postemergence, 250 g ai/ha, scale 0 to 100, 0 no effect, 100 complete control
[12] = postemergence, 125 g ai/ha, scale 0 to 100
[13] = postemergence, 62 g ai/ha, scale 0 to 100
[14] = 500 g ai/ha, scale 0 to 100 (0 no effect, 100 complete control), visual, 12 to 14 days, preemergence
[15] = Postemergence, 500 g ai/ha, scale 0 to 100

CCN(CC)C(=O)c1cccc(NC(=O)c2sc(C(C)(C)C)nc2C)c1 [Compound 199]
Barnyardgrass plant response rating (barnyardgrass; [1]): 10 | Plant response rating, Barnyardgrass (barnyardgrass; [2]): 80 | Barnyardgrass plant response rating (barnyardgrass; [3]): 95 | Barnyardgrass plant response rating (barnyardgrass; [4]): 55 | Crabgrass, Large plant response rating (large crabgrass; [1]): 15 | Plant response rating, Crabgrass, Large (large crabgrass; [2]): 50 | Crabgrass, Large plant response rating (large crabgrass; [3]): 100 | Crabgrass, Large plant response rating (large crabgrass; [4]): 70 | Foxtail, Giant plant response rating (giant foxtail; [1]): 25 | Plant response rating, Foxtail, Giant (giant foxtail; [2]): 65 | Foxtail, Giant plant response rating (giant foxtail; [3]): 100 | Foxtail, Giant plant response rating (giant foxtail; [4]): 80 | Pigweed plant response rating (redroot pigweed; [1]): 80 | Plant response rating, Pigweed (redroot pigweed; [2]): 80 | Pigweed plant response rating (redroot pigweed; [3]): 100 | Pigweed plant response rating (redroot pigweed; [4]): 100 | Plant response rating, Bermudagrass (bermudagrass; [5]): 55 | Plant response rating, Bermudagrass (bermudagrass; [6]): 85 | Plant response rating, Bermudagrass (bermudagrass; [7]): 100 | Bermudagrass plant response rating (bermudagrass; [8]): 100 | Plant response rating, Surinam Grass (Surinam grass; [9]): 0 | Plant response rating, Surinam Grass (Surinam grass; [6]): 0 | Plant response rating, Surinam Grass (Surinam grass; [7]): 30 | Surinam Grass plant response rating (Surinam grass; [10]): 75 | Plant response rating, Cupgrass, Woolly (woolly cupgrass; [9]): 0 | Plant response rating, Cupgrass, Woolly (woolly cupgrass; [6]): 0 | Plant response rating, Cupgrass, Woolly (woolly cupgrass; [7]): 40 | Cupgrass, Woolly plant response rating (woolly cupgrass; [10]): 70 | Plant response rating, Johnsongrass (johnsongrass; [9]): 0 | Plant response rating, Johnsongrass (johnsongrass; [6]): 30 | Plant response rating, Johnsongrass (johnsongrass; [7]): 60 | Johnsongrass plant response rating (johnsongrass; [10]): 90 | Plant response rating, Morningglory (morningglory; [6]): 50 | Plant response rating, Morningglory (morningglory; [7]): 70 | Morningglory plant response rating (morningglory; [10]): 70

CCc1nc(C(C)(C)C)sc1C(=O)Nc1cccc(C(=O)N(CC)CC)c1 [Compound 205]
Barnyardgrass plant response rating (barnyardgrass; [1]): 45 | Plant response rating, Barnyardgrass (barnyardgrass; [2]): 65 | Barnyardgrass plant response rating (barnyardgrass; [3]): 90 | Barnyardgrass plant response rating (barnyardgrass; [4]): 80 | Crabgrass, Large plant response rating (large crabgrass; [1]): 10 | Plant response rating, Crabgrass, Large (large crabgrass; [2]): 20 | Crabgrass, Large plant response rating (large crabgrass; [3]): 95 | Crabgrass, Large plant response rating (large crabgrass; [4]): 80 | Foxtail, Giant plant response rating (giant foxtail; [1]): 10 | Plant response rating, Foxtail, Giant (giant foxtail; [2]): 25 | Foxtail, Giant plant response rating (giant foxtail; [3]): 100 | Foxtail, Giant plant response rating (giant foxtail; [4]): 85 | Pigweed plant response rating (redroot pigweed; [1]): 50 | Plant response rating, Pigweed (redroot pigweed; [2]): 65 | Pigweed plant response rating (redroot pigweed; [3]): 100 | Pigweed plant response rating (redroot pigweed; [4]): 100 | Plant response rating, Bermudagrass (bermudagrass; [5]): 90 | Plant response rating, Bermudagrass (bermudagrass; [6]): 100 | Plant response rating, Bermudagrass (bermudagrass; [7]): 100 | Bermudagrass plant response rating (bermudagrass; [8]): 100 | Plant response rating, Surinam Grass (Surinam grass; [9]): 0 | Plant response rating, Surinam Grass (Surinam grass; [6]): 20 | Plant response rating, Surinam Grass (Surinam grass; [7]): 50 | Surinam Grass plant response rating (Surinam grass; [10]): 85 | Plant response rating, Cupgrass, Woolly (woolly cupgrass; [9]): 0 | Plant response rating, Cupgrass, Woolly (woolly cupgrass; [6]): 10 | Plant response rating, Cupgrass, Woolly (woolly cupgrass; [7]): 10 | Cupgrass, Woolly plant response rating (woolly cupgrass; [10]): 50 | Plant response rating, Johnsongrass (johnsongrass; [9]): 0 | Plant response rating, Johnsongrass (johnsongrass; [6]): 10 | Plant response rating, Johnsongrass (johnsongrass; [7]): 60 | Johnsongrass plant response rating (johnsongrass; [10]): 85 | Plant response rating, Morningglory (morningglory; [9]): 0 | Plant response rating, Morningglory (morningglory; [6]): 0 | Plant response rating, Morningglory (morningglory; [7]): 10 | Morningglory plant response rating (morningglory; [10]): 50

CCc1nc(C(C)(C)C)sc1C(=O)Nc1cccc(C(=O)NCC2CC2)c1 [Compound 212]
Barnyardgrass plant response rating (barnyardgrass; [1]): 50 | Plant response rating, Barnyardgrass (barnyardgrass; [2]): 90 | Barnyardgrass plant response rating (barnyardgrass; [3]): 85 | Barnyardgrass plant response rating (barnyardgrass; [4]): 80 | Crabgrass, Large plant response rating (large crabgrass; [1]): 45 | Plant response rating, Crabgrass, Large (large crabgrass; [2]): 60 | Crabgrass, Large plant response rating (large crabgrass; [3]): 95 | Crabgrass, Large plant response rating (large crabgrass; [4]): 90 | Foxtail, Giant plant response rating (giant foxtail; [1]): 45 | Plant response rating, Foxtail, Giant (giant foxtail; [2]): 80 | Foxtail, Giant plant response rating (giant foxtail; [3]): 95 | Foxtail, Giant plant response rating (giant foxtail; [4]): 70 | Pigweed plant response rating (redroot pigweed; [1]): 75 | Plant response rating, Pigweed (redroot pigweed; [2]): 90 | Pigweed plant response rating (redroot pigweed; [3]): 100 | Pigweed plant response rating (redroot pigweed; [4]): 100 | Plant response rating, Bermudagrass (bermudagrass; [5]): 60 | Plant response rating, Bermudagrass (bermudagrass; [6]): 75 | Plant response rating, Bermudagrass (bermudagrass; [7]): 80 | Bermudagrass plant response rating (bermudagrass; Postemergence, scale 0 to 100): 50 | Plant response rating, Bermudagrass (bermudagrass; [11]): 10 | Bermudagrass plant response rating (bermudagrass; [8]): 100 | Plant response rating, Bermudagrass (bermudagrass; [12]): 0 | Plant response rating, Bermudagrass (bermudagrass; [13]): 0 | Plant response rating, Surinam Grass (Surinam grass; [9]): 0 | Plant response rating, Surinam Grass (Surinam grass; [6]): 0 | Plant response rating, Surinam Grass (Surinam grass; [7]): 5 | Plant response rating, Surinam Grass (Surinam grass; [14]): 20 | Surinam Grass plant response rating (Surinam grass; [15]): 50 | Plant response rating, Surinam Grass (Surinam grass; [11]): 20 | Plant response rating, Surinam Grass (Surinam grass; [12]): 5 | Plant response rating, Surinam Grass (Surinam grass; [13]): 0 | Plant response rating, Cupgrass, Woolly (woolly cupgrass; [9]): 0 | Plant response rating, Cupgrass, Woolly (woolly cupgrass; [6]): 0 | Plant response rating, Cupgrass, Woolly (woolly cupgrass; [7]): 20 | Plant response rating, Cupgrass, Woolly (woolly cupgrass; [14]): 30 | Cupgrass, Woolly plant response rating (woolly cupgrass; [15]): 40 | Plant response rating, Cupgrass, Woolly (woolly cupgrass; [11]): 30 | Plant response rating, Cupgrass, Woolly (woolly cupgrass; [12]): 5 | Plant response rating, Cupgrass, Woolly (woolly cupgrass; [13]): 5 | Plant response rating, Johnsongrass (johnsongrass; [9]): 0 | Plant response rating, Johnsongrass (johnsongrass; [6]): 0 | Plant response rating, Johnsongrass (johnsongrass; [7]): 50 | Plant response rating, Johnsongrass (johnsongrass; [14]): 60 | Johnsongrass plant response rating (johnsongrass; [15]): 35 | Plant response rating, Johnsongrass (johnsongrass; [11]): 35 | Plant response rating, Johnsongrass (johnsongrass; [12]): 30 | Plant response rating, Johnsongrass (johnsongrass; [13]): 0 | Plant response rating, Morningglory (morningglory; [9]): 0 | Plant response rating, Morningglory (morningglory; [6]): 0 | Plant response rating, Morningglory (morningglory; [7]): 5 | Plant response rating, Morningglory (morningglory; [14]): 30 | Morningglory plant response rating (morningglory; [15]): 70 | Plant response rating, Morningglory (morningglory; [11]): 70 | Plant response rating, Morningglory (morningglory; [12]): 10 | Plant response rating, Morningglory (morningglory; [13]): 10

CCN(CC)C(=O)c1cccc(NC(=O)c2cc(C(C)(C)C)nn2C)n1 [Compound 314]
Barnyardgrass plant response rating (barnyardgrass; [1]): 35 | Plant response rating, Barnyardgrass (barnyardgrass; [2]): 75 | Barnyardgrass plant response rating (barnyardgrass; [3]): 90 | Barnyardgrass plant response rating (barnyardgrass; [4]): 50 | Crabgrass, Large plant response rating (large crabgrass; [1]): 20 | Plant response rating, Crabgrass, Large (large crabgrass; [2]): 60 | Crabgrass, Large plant response rating (large crabgrass; [3]): 90 | Crabgrass, Large plant response rating (large crabgrass; [4]): 55 | Foxtail, Giant plant response rating (giant foxtail; [1]): 30 | Plant response rating, Foxtail, Giant (giant foxtail; [2]): 70 | Foxtail, Giant plant response rating (giant foxtail; [3]): 90 | Foxtail, Giant plant response rating (giant foxtail; [4]): 60 | Pigweed plant response rating (redroot pigweed; [1]): 80 | Plant response rating, Pigweed (redroot pigweed; [2]): 100 | Pigweed plant response rating (redroot pigweed; [3]): 90 | Pigweed plant response rating (redroot pigweed; [4]): 80 | Plant response rating, Bermudagrass (bermudagrass; [5]): 10 | Plant response rating, Bermudagrass (bermudagrass; [6]): 60 | Plant response rating, Bermudagrass (bermudagrass; [7]): 60 | Bermudagrass plant response rating (bermudagrass; [8]): 90 | Plant response rating, Surinam Grass (Surinam grass; [9]): 0 | Plant response rating, Surinam Grass (Surinam grass; [7]): 0 | Plant response rating, Surinam Grass (Surinam grass; [14]): 20 | Plant response rating, Cupgrass, Woolly (woolly cupgrass; [9]): 0 | Plant response rating, Cupgrass, Woolly (woolly cupgrass; [6]): 0 | Plant response rating, Cupgrass, Woolly (woolly cupgrass; [7]): 0 | Plant response rating, Cupgrass, Woolly (woolly cupgrass; [14]): 20 | Plant response rating, Johnsongrass (johnsongrass; [9]): 0 | Plant response rating, Johnsongrass (johnsongrass; [6]): 20 | Plant response rating, Johnsongrass (johnsongrass; [7]): 70 | Plant response rating, Johnsongrass (johnsongrass; [14]): 90 | Plant response rating, Morningglory (morningglory; [9]): 0 | Plant response rating, Morningglory (morningglory; [6]): 10 | Plant response rating, Morningglory (morningglory; [7]): 30 | Plant response rating, Morningglory (morningglory; [14]): 40
